# Data from ChEMBL document CHEMBL1201862, “PubChem BioAssay data set” (2004).
#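 In this assay, cells in 96-well plates receive the compound at five concentrations for 48 hours. Endpoints are linearly interpolated between the surrounding concentrations. Here, GI50 denotes the concentration required for 50% inhibition of growth.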 The source made the active and inactive calls. No stated cut-off is given here; in the data, active = GI50 up to about 1.1 µM and inactive = higher.
# Experiments:
# Test in all cases: DTP human tumour cell line panel, 48 h
# [1] = test system: SF-539
# [2] = test system: MDA-N
# [3] = test system: ACHN
# [4] = test system: HOP-62
# [5] = test system: SK-OV-3
# [6] = test system: NCI-H522
# [7] = test system: SF-295
# [8] = test system: OVCAR-3
# [9] = test system: HCC 2998
# [10] = test system: T47D
# [11] = test system: K562
# [12] = test system: A549
# [13] = test system: M14
# [14] = test system: SNB-75
# [15] = test system: HOP-92
# [16] = test system: NCI/ADR-RES
# [17] = test system: HCT-15
# [18] = test system: MDA-MB-231
# [19] = test system: KM12
# [20] = test system: MDA-MB-435
# [21] = test system: IGROV-1
# [22] = test system: MOLT-4
# [23] = test system: EKVX
# [24] = test system: PC-3
# [25] = test system: BT-549
# [26] = test system: RPMI-8226
# [27] = test system: HL-60
# [28] = test system: SNB-19
# [29] = test system: SF-268
# [30] = test system: RXF 393
# [31] = test system: Malme-3M
# [32] = test system: SK-MEL-2
# [33] = test system: SN12C
# [34] = test system: U-251
# [35] = test system: NCI-H460
# [36] = test system: UACC-62
# [37] = test system: OVCAR-4
# [38] = test system: SW-620
# [39] = test system: SK-MEL-28
# [40] = test system: NCI-H23
# [41] = test system: UACC-257
# [42] = test system: TK-10
# [43] = test system: SK-MEL-5
# [44] = test system: SR
# [45] = test system: DU-145
# [46] = test system: MCF7
# [47] = test system: HT-29
# [48] = test system: 786-0
# [49] = test system: Hs-578T
# [50] = test system: CAKI-1
# [51] = test system: OVCAR-5
# [52] = test system: A498
# [53] = test system: UO-31
# [54] = test system: LOX IMVI
# [55] = test system: COLO 205
# [56] = test system: HCT-116
# [57] = test system: OVCAR-8
# [58] = test system: CCRF-CEM
# [59] = test system: NCI-H226
compound,measurement,setting,value
COc1cc2cc(C(=O)N3C[C@@H](CCl)c4c3cc(N)c3ccccc43)[nH]c2c(OC)c1OC,GI50,[1],2.13 nM (active)
same,GI50,[2],0.296 nM (active)
same,GI50,[3],9.42 nM (active)
same,GI50,[4],7.55 nM (active)
same,GI50,[5],4.57 nM (active)
same,GI50,[6],2.83 nM (active)
same,GI50,[7],< 10 nM (active)
same,GI50,[8],3.85 nM (active)
same,GI50,[9],< 10 nM (active)
same,GI50,[10],1.04 nM (active)
same,GI50,[11],3.27 nM (active)
same,GI50,[12],5.46 nM (active)
same,GI50,[13],1.04 nM (active)
same,GI50,[14],< 10 nM (active)
same,GI50,[15],4.8 nM (active)
same,GI50,[16],3.32 nM (active)
same,GI50,[17],0.579 nM
same,GI50,[18],1.72 nM (active)
same,GI50,[19],2.16 nM (active)
same,GI50,[20],0.269 nM (active)
same,GI50,[21],6.11 nM (active)
same,GI50,[22],5.57 nM (active)
same,GI50,[23],231 nM (active)
same,GI50,[24],1.02 nM (active)
same,GI50,[25],44.2 nM (active)
same,GI50,[26],7.6 nM (active)
same,GI50,[27],3.18 nM (active)
same,GI50,[28],6.65 nM (active)
same,GI50,[29],119 nM (active)
same,GI50,[30],1.57 nM (active)
same,GI50,[31],< 10 nM (active)
same,GI50,[32],< 10 nM (active)
same,GI50,[33],9.14 nM (active)
same,GI50,[34],1.63 nM (active)
same,GI50,[35],1.83 nM (active)
same,GI50,[36],0.895 nM (active)
same,GI50,[37],826 nM (active)
same,GI50,[38],2.01 nM (active)
same,GI50,[39],< 10 nM (active)
same,GI50,[40],13.8 nM (active)
same,GI50,[41],237 nM (active)
same,GI50,[42],< 10 nM (active)
same,GI50,[43],< 10 nM (active)
same,GI50,[44],0.455 nM (active)
same,GI50,[45],< 10 nM (active)
same,GI50,[46],1.45 nM (active)
same,GI50,[47],73.5 nM (active)
same,GI50,[48],103 nM (active)
same,GI50,[49],7.38 nM (active)
same,GI50,[50],4 nM (active)
same,GI50,[51],< 10 nM (active)
same,GI50,[52],8.63 nM (active)
same,GI50,[53],6.22 nM (active)
same,GI50,[54],3.13 nM (active)
same,GI50,[55],77.6 nM (active)
same,GI50,[56],0.301 nM (active)
same,GI50,[57],4.51 nM (active)
same,GI50,[58],0.644 nM (active)
COc1ccc(N/N=C2\CCOc3ccc(C)cc3C2=O)cc1,GI50,[1],40600 nM (inactive)
same,GI50,[2],3980 nM (inactive)
same,GI50,[3],12400 nM (inactive)
same,GI50,[4],39200 nM (inactive)
same,GI50,[5],18200 nM (inactive)
same,GI50,[6],24700 nM (inactive)
same,GI50,[7],10300 nM (inactive)
same,GI50,[8],43200 nM (inactive)
same,GI50,[9],13600 nM (inactive)
same,GI50,[10],2140 nM (inactive)
same,GI50,[11],4430 nM (inactive)
same,GI50,[12],21300 nM (inactive)
same,GI50,[13],26900 nM (inactive)
same,GI50,[59],27400 nM (inactive)
same,GI50,[15],18100 nM (inactive)
same,GI50,[16],9400 nM (inactive)
same,GI50,[17],5520 nM
same,GI50,[18],14400 nM (inactive)
same,GI50,[19],5080 nM (inactive)
same,GI50,[20],3180 nM (inactive)
same,GI50,[21],17700 nM (inactive)
same,GI50,[22],11100 nM (inactive)
same,GI50,[23],21300 nM (inactive)
same,GI50,[24],10600 nM (inactive)
same,GI50,[25],24100 nM (inactive)
same,GI50,[26],25500 nM (inactive)
same,GI50,[27],11900 nM (inactive)
same,GI50,[28],39700 nM (inactive)
same,GI50,[29],35500 nM (inactive)
same,GI50,[31],11100 nM (inactive)
same,GI50,[32],16800 nM (inactive)
same,GI50,[33],40600 nM (inactive)
same,GI50,[34],20900 nM (inactive)
same,GI50,[35],13700 nM (inactive)
same,GI50,[36],6810 nM (inactive)
same,GI50,[37],14500 nM (inactive)
same,GI50,[38],20000 nM (inactive)
same,GI50,[39],32300 nM (inactive)
same,GI50,[41],14900 nM (inactive)
same,GI50,[42],55600 nM (inactive)
same,GI50,[43],19100 nM (inactive)
same,GI50,[44],15600 nM (inactive)
same,GI50,[45],51300 nM (inactive)
same,GI50,[46],14400 nM (inactive)
same,GI50,[47],7800 nM (inactive)
same,GI50,[48],17400 nM (inactive)
same,GI50,[49],25100 nM (inactive)
same,GI50,[50],27900 nM (inactive)
same,GI50,[51],91400 nM (inactive)
same,GI50,[52],59800 nM (inactive)
same,GI50,[53],24000 nM (inactive)
same,GI50,[54],12400 nM (inactive)
same,GI50,[55],23400 nM (inactive)
same,GI50,[56],19500 nM (inactive)
same,GI50,[57],31800 nM (inactive)
same,GI50,[58],16300 nM (inactive)
